The subject of series [1] is Pseudomonas putida strain F39/D. Nature of the series: substrate toxicity: growth of strain F39/D in the presence of the test compounds. It is filed as cell-based. From the text:
(§1) Two significant parameters of each substrate tested were toxicity and water solubility. The combined effects of those parameters will influence the maximum rate of biotransformation by the microbial culture. Methods were developed to examine the effects of substrate concentration on the rate of biotransformation and cell growth. The rates of biotransformation were apparently independent of the substrates' water solubility. For example, the solubilities of bromobenzene, acetophenone, and 1-phenyl-1,2-ethanediol in MSB buffer (at 30° C.) are approximately 400 mg/liter, 2000 mg/liter, and 5000 mg/liter, respectively. Bromobenzene, one of the least water-soluble substrates tested, was transformed to its dihydrodiol by strain F39/D at an average rate of about 20 mg/liter/hour. […] Substrate toxicity was determined by examining the growth rate of strain F39/D in the presence of the test compounds.

Series [2] has the same test system. Nature of the series: rate of biotransformation of substrate to its dihydrodiol by strain F39/D. It is filed as cell-based.
Text: as §1
Biotransformation preferably involves the addition of the starting substrate to an induced microbial cell suspension. The microorganisms are then allowed to grow such that the enzyme, arene 2,3-dioxygenase may act on the substrate. The induced microorganisms are prepared as described above. […]

Series [3] can be described thus: solubility of substrates in MSB buffer. The class given is physicochemical.
Text: as §1

The structures appear in SMILES notation. ≈ marks a conversion by molar mass, not a printed value.

For `Brc1ccccc1` [bromobenzene], the “growth of the microbes” value in series [1] (400 mg/l (saturated level)) is listed as “apparently unaffected”. Besides, the “average rate of transformation to its dihydrodiol” value in series [2] is recorded as “about 20 mg/liter/hour”. Moreover, in series [2] (relative to acetophenone or 1-phenylethanediol transformation), the “rate of transformation compared with acetophenone or 1-phenylethanediol” value is given as “much greater than that of acetophenone or 1-phenylethanediol transformation”. In addition, the “solubility in MSB buffer” value in series [3] (MSB buffer, 30° C.) is “approximately 400 mg/liter”.

Turning to `OCC(O)c1ccccc1` (stereo not shown) [1-phenyl-1,2-ethanediol], in series [3] (msb buffer), the “solubility in MSB buffer” value is approximately 5 mg/mL (≈ 36.2 mM).

Take `CC(=O)c1ccccc1` [acetophenone]: in series [1] (1000 mg/l (one-half saturated level)), the “growth of the microbes” value is recorded as “completely inhibited”. The “solubility in MSB buffer” value in series [3] (msb buffer) is approximately 2 mg/mL (≈ 16.6 mM).

The values above are taken from patent US5284759A, “Biological production of acetal or ketal substituted benzene compounds” (Minnesota Mining and Manufacturing Company, priority 1992, dated 1994).
